From ChEMBL document CHEMBL1765079, “Syntheses of 2-deoxy-2,3-didehydro-N-acetylneuraminic acid analogues modified by N-sulfonylamidino groups at the C-4 position and biological evaluation as inhibitors of human parainfluenza virus type 1” (Bioorg Med Chem, 2011) come the findings set out here.

The test concerns the target T1, Hemagglutinin-neuraminidase (Human parainfluenza virus 1, UniProt Q06992).
T1 sequence (Q06992 whole entry): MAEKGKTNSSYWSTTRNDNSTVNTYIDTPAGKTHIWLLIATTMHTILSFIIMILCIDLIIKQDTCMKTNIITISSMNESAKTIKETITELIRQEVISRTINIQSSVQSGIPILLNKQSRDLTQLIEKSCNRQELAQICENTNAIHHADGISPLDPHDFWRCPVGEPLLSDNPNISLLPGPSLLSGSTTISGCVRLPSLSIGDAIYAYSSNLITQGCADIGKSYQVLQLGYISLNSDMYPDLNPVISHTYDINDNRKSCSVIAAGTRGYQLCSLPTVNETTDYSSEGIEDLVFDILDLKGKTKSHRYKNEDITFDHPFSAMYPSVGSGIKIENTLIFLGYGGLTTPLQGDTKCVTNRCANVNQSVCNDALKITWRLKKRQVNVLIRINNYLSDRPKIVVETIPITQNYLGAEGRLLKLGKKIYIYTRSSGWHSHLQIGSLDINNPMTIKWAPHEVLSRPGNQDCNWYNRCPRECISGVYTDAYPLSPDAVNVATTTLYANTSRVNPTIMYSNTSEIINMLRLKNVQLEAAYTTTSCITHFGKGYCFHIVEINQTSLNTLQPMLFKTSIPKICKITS
Description: Inhibition of Human parainfluenza virus 1 sialidase using N-acetyl-alpha-neuramic acid by fluorometric assay. Also noted: species or system Human respirovirus 1.

With `CC(=O)N[C@H]1[C@H]([C@H](O)[C@H](O)CO)OC(C(=O)O)=C[C@@H]1N=C(Cc1ccccc1)NS(C)(=O)=O`, the IC50 is 2.1 mM. On to `CC(=O)N[C@H]1[C@H]([C@H](O)[C@H](O)CO)OC(C(=O)O)=C[C@@H]1OCCC(=Nc1ccccc1)NS(C)(=O)=O`, for which the IC50 is 0.8 mM. `CC(=O)N[C@H]1[C@H]([C@H](O)[C@H](O)CO)OC(C(=O)O)=C[C@@H]1OCCC(=NC(C)C)NS(=O)(=O)c1ccc(C)cc1` came in with an IC50 of 7.7 mM.

`CC(=O)N[C@H]1[C@H]([C@H](O)[C@H](O)CO)OC(C(=O)O)=C[C@@H]1N=C(C)NS(C)(=O)=O` yielded an IC50 of 16 mM. `CC(=O)NC1[C@H](C(O)[C@H](O)CO)OC(C(=O)O)=C[C@@H]1O` (single isomer, unassigned) [NEU5AC2EN]: 0.3 mM corresponded to half-maximal inhibition (IC50).

On to `CC(=O)N[C@H]1[C@H]([C@H](O)[C@H](O)CO)OC(C(=O)O)=C[C@@H]1OCC/C(=N\S(=O)(=O)c1ccc(C)cc1)N(C(C)C)C(C)C`, for which the IC50 turned out to be 4.8 mM. To `CCN(CC)/C(CCO[C@H]1C=C(C(=O)O)O[C@@H]([C@H](O)[C@H](O)CO)[C@@H]1NC(C)=O)=N\S(=O)(=O)c1ccc(C)cc1` belongs 9.1 mM; to `CCN(CC)/C(CCO[C@H]1C=C(C(=O)O)O[C@@H]([C@H](O)[C@H](O)CO)[C@@H]1NC(C)=O)=N/S(C)(=O)=O`, 1.5 mM; to `CC(=O)N[C@H]1[C@H]([C@H](O)[C@H](O)CO)OC(C(=O)O)=C[C@@H]1N=C(Cc1cccs1)NS(C)(=O)=O`, 2 mM. As for `CCCc1ccc(C/C(=N/S(C)(=O)=O)N[C@H]2C=C(C(=O)O)O[C@@H]([C@H](O)[C@H](O)CO)[C@@H]2NC(C)=O)cc1`, the figure is 1.6 mM; as for `CC(=O)N[C@H]1[C@H]([C@H](O)[C@H](O)CO)OC(C(=O)O)=C[C@@H]1N=C(CC1=CCCCC1)NS(C)(=O)=O`, 1.5 mM.

The compound `CC(=O)N[C@H]1[C@H]([C@H](O)[C@H](O)CO)OC(C(=O)O)=C[C@@H]1N=C(Cc1ccc(F)cc1)NS(C)(=O)=O` yielded an IC50 of 1.6 mM.
